Results on one molecule are retold here after PMC2819003 (Angewandte Chemie (International ed. in English), 2010).

The target of this assay is T1, DPPS; decaprenyl diphosphate synthase (Homo sapiens, UniProt Q5T2R2).
T1 sequence (Q5T2R2 1-415): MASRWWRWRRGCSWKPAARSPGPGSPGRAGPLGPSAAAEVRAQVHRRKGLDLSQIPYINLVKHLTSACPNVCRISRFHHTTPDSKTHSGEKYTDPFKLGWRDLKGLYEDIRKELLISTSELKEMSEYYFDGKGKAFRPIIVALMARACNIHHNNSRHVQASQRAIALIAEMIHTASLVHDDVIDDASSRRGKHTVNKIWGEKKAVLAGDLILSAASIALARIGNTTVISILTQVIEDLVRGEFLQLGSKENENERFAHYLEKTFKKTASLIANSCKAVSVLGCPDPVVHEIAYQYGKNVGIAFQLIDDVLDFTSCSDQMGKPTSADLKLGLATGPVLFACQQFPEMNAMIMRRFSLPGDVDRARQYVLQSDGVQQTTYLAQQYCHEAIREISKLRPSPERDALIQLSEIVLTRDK
T1 sequence (Q86YH6 1-399 partner): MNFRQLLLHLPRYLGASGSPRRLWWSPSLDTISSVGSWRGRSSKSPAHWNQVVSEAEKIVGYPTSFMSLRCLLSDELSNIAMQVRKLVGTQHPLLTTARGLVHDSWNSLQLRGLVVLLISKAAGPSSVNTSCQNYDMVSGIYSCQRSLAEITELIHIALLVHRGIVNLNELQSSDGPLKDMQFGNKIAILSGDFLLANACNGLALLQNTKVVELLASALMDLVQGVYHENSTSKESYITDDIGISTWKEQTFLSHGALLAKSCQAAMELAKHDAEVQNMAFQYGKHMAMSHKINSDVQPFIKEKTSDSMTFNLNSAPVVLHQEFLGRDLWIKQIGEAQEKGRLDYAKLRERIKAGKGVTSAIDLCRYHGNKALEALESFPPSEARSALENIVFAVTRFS
Kind of assay: DPPS inhibition assay. The format is biochemical.

The structures appear in SMILES notation.

For the molecule `O=P(O)(O)C(O)(Cn1ccnc1)P(=O)(O)O` [zoledronate], the IC50 was found to be 5.5 µM.
